Assay results: patent US8735421B2, “Imidazoquinolinyl sulfonamides” (3M Innovative Properties Company, priority 2003, dated 2014)
Structures can show the parent of a compound that is named as a salt.

Structure (SMILES)	melting point [°C]
CCOCc1nc2c(N)nc3ccccc3c2n1CC(C)(C)CS(=O)(=O)N(C)C (as salt: hydrochloride) [Example 25, N,N-Dimethyl 3-(4-amino-2-ethoxymethyl-1H-imidazo[4,5-c]quinolin-1-yl)-2,2-dimethylpropane-1-sulfonamide]	193 to 195
CCc1nc2c(N)nc3ccccc3c2n1CCCCS(N)(=O)=O (as salt: trifluoroacetate) [Example 6, 4-(4-Amino-2-ethyl-1H-imidazo[4,5-c]quinolin-1-yl)butane-1-sulfonamide]	225 to 227
CCc1nc2c(N)nc3ccccc3c2n1CCCCS(=O)(=O)N(C)C [Example 3, N,N-Dimethyl 4-(4-amino-2-ethyl-1H-imidazo[4,5-c]quinolin-1-yl)butane-1-sulfonamide]	193 to 195
CCc1nc2c(N)nc3ccccc3c2n1CCCCS(=O)(=O)NC [Example 4, N-Methyl 4-(4-amino-2-ethyl-1H-imidazo[4,5-c]quinolin-1-yl)butane-1-sulfonamide]	190 to 191
CN(C)S(=O)(=O)CCCn1cnc2c(N)nc3ccccc3c21 [Example 7, N,N-Dimethyl 3-(4-amino-1H-imidazo[4,5-c]quinolin-1-yl)propane-1-sulfonamide]	155 to 157
CCOCc1nc2c(N)nc3ccccc3c2n1CCCCS(=O)(=O)N1CCCCC1 [Example 12, 2-Ethoxymethyl-1-[4-(piperidine-1-sulfonyl)butyl]-1H-imidazo[4,5-c]quinoline-4-amine]	185 to 188
CCOCc1nc2c(N)nc3ccccc3c2n1CCCCS(=O)(=O)NC1CCCCC1 [Example 13, N-Cyclohexyl 4-(4-amino-2-ethoxymethyl-1H-imidazo[4,5-c]quinolin-1-yl)butane-1-sulfonamide]	197 to 198
CCCCNS(=O)(=O)CCCCn1c(COCC)nc2c(N)nc3ccccc3c21 [Example 14, N-Butyl 4-(4-amino-2-ethoxymethyl-1H-imidazo[4,5-c]quinolin-1-yl)butane-1-sulfonamide]	148 to 149
CCOCc1nc2c(N)nc3ccccc3c2n1CCOCCCS(=O)(=O)N(C)C [Example 15, N,N-Dimethyl 3-[2-(4-amino-2-ethoxymethyl-1H-imidazo[4,5-c]quinolin-1-yl)ethoxy]propane-1-sulfonamide]	61 to 64
CCOCc1nc2c(N)nc3ccccc3c2n1CCCCCS(=O)(=O)NC [Example 16, N-Methyl 5-(4-amino-2-ethoxymethyl-1H-imidazo[4,5-c]quinolin-1-yl)pentane-1-sulfonamide]	175 to 179
CCOCc1nc2c(N)nc3ccccc3c2n1CCCCCS(=O)(=O)N(C)C [Example 17, N,N-Dimethyl 5-(4-amino-2-ethoxymethyl-1H-imidazo[4,5-c]quinolin-1-yl)pentane-1-sulfonamide]	138 to 142
CCOCc1nc2c(N)nc3c(c2n1CCCCS(=O)(=O)NC)CCCC3 [Example 18, N-Methyl 4-(4-amino-2-ethoxymethyl-6,7,8,9-tetrahydro-1H-imidazo[4,5-c]quinolin-1-yl)butane-1-sulfonamide]	188 to 192
CCOCc1nc2c(N)nc3c(c2n1CCCCS(=O)(=O)N(C)C)CCCC3 [Example 19, N,N-Dimethyl 4-(4-amino-2-ethoxymethyl-6,7,8,9-tetrahydro-1H-imidazo[4,5-c]quinolin-1-yl)butane-1-sulfonamide]	165 to 167
CCOCc1nc2c(N)nc3ccccc3c2n1CCCCS(=O)(=O)NCc1ccc(OC)cc1 [Example 20, N-(4-Methoxybenzyl) 4-(4-amino-2-ethoxymethyl-1H-imidazo[4,5-c]quinolin-1-yl)butane-1-sulfonamide]	101
CCOCc1nc2c(N)nc3ccccc3c2n1CCCCS(N)(=O)=O [Example 21, 4-(4-Amino-2-ethoxymethyl-1H-imidazo[4,5-c]quinolin-1-yl)butane-1-sulfonamide]	155 to 158
CCOCc1nc2c(N)nc3ccccc3c2n1CCCCCS(=O)(=O)NCc1ccc(OC)cc1 [Example 22, N-(4-Methoxybenzyl) 5-(4-amino-2-ethoxymethyl-1H-imidazo[4,5-c]quinolin-1-yl)pentane-1-sulfonamide]	177 to 178
CCOCc1nc2c(N)nc3c(c2n1CCCCS(N)(=O)=O)CCCC3 [Example 24, 4-(4-Amino-2-ethoxymethyl-6,7,8,9-tetrahydro-1H-imidazo[4,5-c]quinolin-1-yl)butane-1-sulfonamide]	224 to 227
CCCc1nc2c(N)nc(C)c(C)c2n1CCCCS(=O)(=O)N(C)C [Example 26, N,N-Dimethyl 4-(4-Amino-6,7-dimethyl-2-propyl-1H-imidazo[4,5-c]pyridin-1-yl)butane-1-sulfonamide]	127 to 128
CCOCc1nc2c(N)nc(C)c(C)c2n1CCCCS(=O)(=O)N(C)C [Example 28, N,N-Dimethyl 4-(4-Amino-6,7-dimethyl-2-ethoxymethyl-1H-imidazo[4,5-c]pyridin-1-yl)butane-1-sulfonamide]	158 to 160
CCOCc1nc2c(N)nc3cccnc3c2n1CCCCS(=O)(=O)N(C)C [Example 29, N,N-Dimethyl 4-(4-Amino-2-ethoxymethyl-1H-imidazo[4,5-c][1,5]naphthyridin-1-yl)butane-1-sulfonamide]	148 to 150
CCCc1nc2c(N)nc3cccnc3c2n1CCCCS(=O)(=O)N(C)C [Example 30, N,N-Dimethyl 4-(4-Amino-2-propyl-1H-imidazo[4,5-c][1,5]naphthyridin-1-yl)butane-1-sulfonamide]	162 to 163
CCOCc1nc2c(N)nc(C)c(C)c2n1CCCCS(=O)(=O)NC [Example 34, N-Methyl 4-(4-Amino-6,7-dimethyl-2-ethoxymethyl-1H-imidazo[4,5-c]pyridin-1-yl) butane-1-sulfonamide]	194.5 to 196
CCOCc1nc2c(N)nc(C)c(C)c2n1CCCCS(N)(=O)=O [Example 35, 4-(4-Amino-2-ethoxymethyl-6,7-dimethyl-1H-imidazo[4,5-c]pyridin-1-yl)butane-1-sulfonamide]	200 to 201.5
CCOCc1nc2c(N)nc3ccccc3c2n1CC(C)(C)CS(=O)(=O)NC [Example 36, 3-[4-Amino-2-(ethoxymethyl)-1H-imidazo[4,5-c]quinolin-1-yl]-N,2,2-trimethylpropane-1-sulfonamide]	161 to 163
CCOCc1nc2c(N)nc3ccccc3c2n1CCCCS(=O)(=O)NC(C)C [Example 37, 4-[4-Amino-2-(ethoxymethyl)-1H-imidazo[4,5-c]quinolin-1-yl]-N-isopropylbutane-1-sulfonamide]	146 to 147
CCOCc1nc2c(N)nc3c(c2n1CCCCCS(N)(=O)=O)CCCC3 [Example 38, 5-[4-amino-2-(ethoxymethyl)-6,7,8,9-tetrahydro-1H-imidazo[4,5-c]quinolin-1-yl]pentane-1-sulfonamide]	203 to 205

Results, then the compound that gave them:

melting point [°C]	Structure (SMILES)
225 to 228	CCc1nc2c(N)nc3ccccc3c2n1CCCS(=O)(=O)NC [Example 1, N-Methyl 3-(4-amino-2-ethyl-1H-imidazo[4,5-c]quinolin-1-yl)propane-1-sulfonamide]
209 to 211	CCc1nc2c(N)nc3ccccc3c2n1CCCS(=O)(=O)N(C)C [Example 2, N,N-Dimethyl 3-(4-amino-2-ethyl-1H-imidazo[4,5-c]quinolin-1-yl)propane-1-sulfonamide]
176 to 177	CCc1nc2c(N)nc3ccccc3c2n1CCCCS(=O)(=O)NCc1ccc(OC)cc1 [Example 5, N-(4-Methoxybenzyl) 4-(4-amino-2-ethyl-1H-imidazo[4,5-c]quinolin-1-yl)butane-1-sulfonamide]
229 to 230	CCOCc1nc2c(N)nc3ccccc3c2n1CCCCS(=O)(=O)Nc1ccc(OC)cc1 [Example 8, N-(4-Methoxyphenyl) 4-(4-amino-2-ethoxymethyl-1H-imidazo[4,5-c]quinolin-1-yl)butane-1-sulfonamide]
170 to 172	CCOCc1nc2c(N)nc3ccccc3c2n1CCCCS(=O)(=O)NC [Example 10, N-Methyl 4-(4-amino-2-ethoxymethyl-1H-imidazo[4,5-c]quinolin-1-yl)butane-1-sulfonamide]
173 to 174	CCOCc1nc2c(N)nc3ccccc3c2n1CCCCS(=O)(=O)N(C)C [Example 11, N,N-Dimethyl 4-(4-amino-2-ethoxymethyl-1H-imidazo[4,5-c]quinolin-1-yl)butane-1-sulfonamide]
176 to 178	CCOCc1nc2c(N)nc3ccccc3c2n1CCCCCS(N)(=O)=O [Example 23, 5-(4-Amino-2-ethoxymethyl-1H-imidazo[4,5-c]quinolin-1-yl)pentane-1-sulfonamide]
164 to 166	CCCc1nc2c(N)nc(C)c(C)c2n1CCCCS(=O)(=O)NC [Example 27, N-Methyl 4-(4-Amino-6,7-dimethyl-2-propyl-1H-imidazo[4,5-c]pyridin-1-yl)butane-1-sulfonamide]
167 to 169	CCCc1nc2c(N)nc(C)c(C)c2n1CCCCS(N)(=O)=O [Example 31, 4-(4-Amino-6,7-dimethyl-2-propyl-1H-imidazo[4,5-c]pyridin-1-yl)butane-1-sulfonamide]
148 to 150	CCOCc1nc2c(N)nc3cccnc3c2n1CCCCS(=O)(=O)NC [Example 32, N-Methyl 4-(4-Amino-2-ethoxymethyl-1H-imidazo[4,5-c][1,5]naphthyridin-1-yl)butane-1-sulfonamide]
174 to 175	CCCc1nc2c(N)nc3cccnc3c2n1CCCCS(=O)(=O)NC [Example 33, N-Methyl 4-(4-Amino-2-propyl-1H-imidazo[4,5-c][1,5]naphthyridin-1-yl)butane-1-sulfonamide]
166 to 170	CCc1nc2c(N)nc3c(c2n1CCCCS(=O)(=O)NC)CCCC3 [Example 39, N-Methyl 4-(4-amino-2-ethyl-6,7,8,9-tetrahydro-1H-imidazo[4,5-c]quinolin-1-yl)butane-1-sulfonamide]
